In ChEMBL document CHEMBL1135392, “Rational determination of transfer free energies of small drugs across the water-oil interface” (J Med Chem, 2002):

Legend:
Conditions in all cases: octanol/water
[1] = Partition coefficient (logP) (dodecane)
[2] = Partition coefficient (logP)
[3] = Partition coefficient across water-dodecane interface by statistical simulation

| logP [1] | logP [2] | SMILES | logP [3] |
| --- | --- | --- | --- |
| -1.56 | 0.33 | CC(=O)c1ccc(S(C)(=O)=O)cc1 | – |
| < -3 | -3.02 | OC[C@H]1O[C@H](O)[C@H](O)[C@@H](O)[C@@H]1O | – |
| 0.94 | 1.56 | CC(=O)c1ccccc1 [ACETOPHENONE] | – |
| -3.14 | 0.33 | NS(=O)(=O)c1ccccc1 [BENZENESULFONAMIDE] | – |
| 2.59 | 3.11 | Brc1cnc2ccccc2c1 | – |
| 0.51 | 1.35 | c1ccc2nccnc2c1 [QUINOXALINE] | – |
| 2.06 | – | COc1ccccc1 [ANISOLE] | – |
| -0.77 | – | OCc1ccccc1 [BENZYL ALCOHOL] | – |
| -2.72 | 0.32 | NC(=O)c1ccccc1N [ANTHRANILAMIDE] | – |
| -0.9 | 0.63 | CN1C(=O)Cc2ccccc21 | – |
| -1.95 | 1.07 | O=C1Cc2ccccc2N1 [OXINDOLE] | – |

| SMILES | logP [1] | logP [2] | logP [3] |
| --- | --- | --- | --- |
| NC(=O)c1ccccc1 [BENZAMIDE] | -2.67 | 0.67 | – |
| CC(=O)Nc1ccccc1 [ACETANILIDE] | -1.76 | 1.13 | – |
| c1ccc2nc3ccccc3cc2c1 [ACRIDINE] | 2.32 | 2.98 | – |
| O=[N+]([O-])c1ccccc1 [NITROBENZENE] | 1.43 | 1.84 | – |
| Oc1ccccc1 [PHENOL] | -1.04 | 1.5 | – |
| Oc1cccc(Cl)c1 | -0.34 | – | – |
| Cc1cc(=O)n(-c2ccccc2)n1C [ANTIPYRINE] | -2.52 | – | -2.5 |
